Data on 6 molecules can be found in article PMC10458307, “New Scaffolds of Proteasome Inhibitors: Boosting Anticancer Potential by Exploiting the Synergy of In Silico and In Vitro Methodologies” (Pharmaceuticals, 2023).

One may read the inhibition as how much of the control response was suppressed. The term viability denotes the share of living cells, or the viability signal relative to a control. Usually IC50 stands for the concentration needed to halve the response being measured. High values mean a need for much substance, low ones inhibition by little substance.

Several values for one entry are separate records, joined by “and”; a condition that tells them apart may be missing. Identical values can stand only once.

Data set [1] addresses T1, isolated human 20S proteasome, C-L activity (Homo sapiens, UniProt P28072+Q99436).
T1 construct: human purified erythrocyte-derived 20S proteasome; purchased Enzo Life Sciences, Inc; host or cells: human erythrocytes (natural source)
Put plainly: Proteasome inhibition assay in isolated human 20S proteasomes (Proteasome-Glo), C-L activity. The class given is biochemical. To be noted: for inhibition at 10 µM: read-out: percentage of proteasome inhibition, C-L, isolated 20S proteasome; for percentage of proteasome inhibition, C-L, isolated human 20S proteasome: at 100 µM, Table 1 legend: bortezomib positive control 10 µM. An excerpt: (§1) In this assay, the peptide substrates are bound to aminoluciferin (Suc-LLVY-AML for CT-L activity, Z-nLPnLD-AML for C-L, and Z-LRR-AML for T-L), leading the cleavage of these substrates by the proteasome to the release of free aminoluciferin, which is the substrate of the buffer-contained luciferase.
(§2) To evaluate human purified erythrocyte-derived 20S proteasome inhibitory activity of the chosen compounds, the Proteasome-Glo™ 3-substrate system (Promega Corporation, Madison, WI, USA) was employed. The Proteasome-Glo™ reagents of the three proteolytic activities were prepared according to the manufacturer’s instructions, aliquoted, and stored at either −20 °C or 4 °C, avoiding freezing–thaw cycles. […] The purified 20S proteasome (Enzo Life Sciences, Inc., Farmingdale, NY, USA) was diluted in HEPES buffer 10 mM, pH 7.4, to a concentration experimentally adjusted to the signal/noise ratio obtained with each particular lot of Proteasome-Glo™ reagent, in order to have a good compromise between sensitivity and linear response. […] All assays were performed in white-walled multiwell plates (Thermo Scientific™ Sterilin™ White Microtiter™ plates, Thermo Fisher Scientific, Paisley, UK) in duplicates. The proteasome solution (25 μL) was added to each well first, then the diluted solutions of the assayed compounds (25 μL), and lastly the Proteasome-Glo™ Reagent (50 μL). […] Reagents were added to the plate well on ice, and the plate was then transferred to the plate luminometer (SpectraMax®, Molecular Devices, LLC, San Jose, CA, USA) set at 37 °C, gently mixed for 30 s, and the measurements were immediately started in kinetic mode, with data collected every 5 min for at least 60 min.
(§3) All compounds were dissolved in DMSO at a concentration of 10 mM and stored at −20 °C or 4 °C. Solutions of the test compounds were prepared at their adequate dilutions in 10 mM HEPES buffer pH 7.6 before each experiment.
(§4) To calculate the proteasome activity over time, the value of mean relative luminescence units (RLU) of blank wells at each respective time point was subtracted, and then the ratio between mean RLU of the sample and mean RLU of the positive control wells was calculated for each time point and expressed as percentage.

Data set [2] deals with T2, isolated human 20S proteasome, T-L activity (Homo sapiens, UniProt P49720+Q99436).
T2 construct: human purified erythrocyte-derived 20S proteasome; purchased Enzo Life Sciences, Inc; host or cells: human erythrocytes (natural source)
Put plainly: Proteasome inhibition assay in isolated human 20S proteasomes (Proteasome-Glo), T-L activity. Conditions: for inhibition at 10 µM: read-out: percentage of proteasome inhibition, T-L, isolated 20S proteasome; for percentage of proteasome inhibition, T-L, isolated human 20S proteasome: at 100 µM, Table 1 legend: bortezomib positive control 10 µM; for IC50: mean ± SD. The class given is biochemical.
Description: as §1, §2, §3, §4

Data set [3] in a line: Cell viability, MTT assay, Jurkat. It counts as cell-based, human. Conditions: human, Jurkat E6.1 T-cell leukemia cells, read-out: percentage of cell viability, MTT, Jurkat; for viability at 72 h, 10 µM: at 10 µM; for viability at 72 h, 100 µM: at 100 µM. As for the experimental part: (§5) Whenever possible, additional concentrations were tested and IC50 values were determined.
(§6) Human leukemia Jurkat E6.1 T-cell line and K562-cell line were originally obtained from ATCC Collections (Manassas, VA, USA); human HT-29 and HCT116 colorectal carcinoma-cell lines were obtained from ECACC (Porton Down, Porton, UK). Cells were passaged for less than 6 months after and routinely tested for mycoplasma contamination using Mycoalert detection kit (Lonza, Basel, Switzerland). Jurkat, K562, and HT-29 cells were maintained in Roswell Park Memorial Institute (RPMI) 1640 with GlutaMAX™, supplemented with 1% antibiotic mixture (100 µg/mL streptomycin and 100 U/mL penicillin) and 10% heat-inactivated foetal bovine serum (FBS) (all from Gibco, Thermo Fisher Scientific, Paisley, UK). HCT116 cells were maintained in Dulbecco’s Modified Eagle Medium (DMEM) with GlutaMAX™, supplemented with 1% antibiotic mixture (100 µg/mL streptomycin and 100 U/mL penicillin) and 10% heat-inactivated FBS (all from Gibco, Thermo Fisher Scientific, Paisley, UK). Incubation was performed at 37 °C in a 5% CO2 atmosphere. Cells were routinely passaged every 2 or 3 days at 70–90% confluence; TrypLE Express (Gibco, Thermo Fisher Scientific, Paisley, UK) was used as dissociation agent for adherent cells. Trypan blue (Gibco, Thermo Fisher Scientific, Paisley, UK) was used to assess cell viability using the dye exclusion test.
(§7) To assess cell viability, the MTT assay was performed. Jurkat/K562/HT-29/HCT116 cell lines were seeded in triplicate (10,000 cells/well) in 96-well plates with 50 µL of complete medium and incubated at 37 °C, 5% CO2 for 24 h to allow the cells to adhere to the plate (in the case of adherent cells). […] Untreated cells seeded in triplicate were used as control. The blank was performed in triplicate with 100 µL of culture medium. The cells were incubated with the compounds, in triplicate, in 100 µL of total volume, at 37 °C, 5% CO2 for 72 h. […] In suspension cells (Jurkat), 25 µL of MTT were directly added to each well and, after 3 h 30 m of incubation, 100 µL of DMSO were added to solubilize the formazan crystals; in adherent cells (HT-29 and HCT116), the culture medium was removed, 25 µL of MTT were added to each well and, after 3 h 30 m of incubation, upon MTT removal, 100 µL of DMSO were added to solubilize the formazan crystals. After 15 min, the samples absorbance was measured at 570 nm and the percentage of cell viability was determined.

A further data set has as its system Jurkat cells. Nature of the data set: Cell viability, MTT assay, Jurkat. To be noted: 72 h; for IC50: Homo sapiens, Jurkat, mean ± SD; for percentage of cell viability, MTT, Jurkat: at 100 µM. It counts as cell-based, human. As for the experimental part: as §5, §6, §7
Background: Tetrazolium dyes change colour on reduction, which living cells bring about.

The target of data set [4] is T3, 20S proteasome in Jurkat cell lysates, CT-L activity (Homo sapiens, UniProt P28074).
T3 sequence (P28074 60-263): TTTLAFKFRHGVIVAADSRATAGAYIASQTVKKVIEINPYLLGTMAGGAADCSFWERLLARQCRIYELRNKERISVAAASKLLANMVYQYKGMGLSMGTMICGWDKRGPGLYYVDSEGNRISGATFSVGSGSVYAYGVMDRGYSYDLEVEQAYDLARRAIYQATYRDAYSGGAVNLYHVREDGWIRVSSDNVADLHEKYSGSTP
T3 sequence (P20618 29-241 partner): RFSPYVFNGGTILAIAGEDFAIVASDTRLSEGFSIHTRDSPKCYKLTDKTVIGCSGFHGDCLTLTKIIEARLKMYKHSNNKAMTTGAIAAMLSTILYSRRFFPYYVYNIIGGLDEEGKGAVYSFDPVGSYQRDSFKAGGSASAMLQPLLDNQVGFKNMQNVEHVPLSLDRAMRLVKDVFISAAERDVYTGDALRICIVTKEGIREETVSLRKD
Put plainly: Proteasome inhibition assay in cell lysates, Jurkat, CT-L. Conditions: for inhibition at 10 µM: read-out: percentage of proteasome inhibition, CT-L, cell lysates Jurkat, at 10 µM; for inhibition at 100 µM: read-out: percentage of proteasome inhibition, CT-L, cell lysates Jurkat, at 100 µM.
Description: Cells were obtained from several cultured cell lines: Jurkat, K562, HT-29, and HCT116. Pellets with 20 × 10^6 cells were prepared and washed with cold sterile phosphate buffered saline (PBS), 1×, pH 7.4 (Gibco, Thermo Fisher Scientific, Paisley, UK). The preparation of the lysates from several cell lines was performed based on the methodology described by Gavioli et al. [67]. Cells were resuspended in buffer containing 50 mM TRIS-HCl pH 7.4 (Nzytech, Lisboa, Portugal), 5 mM MgCl2 (≥98% purity, Merck, Hamburg, Germany), 1 mM DTT (Merck, Hamburg, Germany), 2 mM ATP (≥98% purity, Enzo Life Sciences Inc., Farmingdale, NY, USA), and 250 mM saccharose (Merck, Hamburg, Germany). Glass beads (Merck, Hamburg, Germany) equivalent to the volume of the cell suspension were added, and the mixture was vortexed for 2 min at 4 °C. Beads and cell debris were removed using 5 min centrifugation at 1000× g and 4 °C, followed by 20 min of centrifugation at 10,000× g at 4 °C. Cell lysates containing proteasomes were resuspended in “activity buffer” [50 mM TRIS-HCl (pH 7.4), 5 mM MgCl2, 1 mM DTT, 2 mM ATP (≥98% purity, Enzo Life Sciences Inc., Farmingdale, NY, USA), and 500 µM EDTA (≥98% purity, Merck, Hamburg, Germany)]. Protein concentration was determined using the Pierce™ BCA protocol (Thermo Fisher Scientific, Rockford, IL, USA). […] DMSO was added in an equal volume as used for the untreated compounds as a way to assess/control its influence in the assay. Untreated cells were used as control. In each well of a 96-well plate, 25 µL of lysate were seeded in duplicate with 25 µL of the compound to test; in the control, 25 µL of activity buffer were added to the 25 µL of lysate. A blank (50 µL of activity buffer) was added to the wells in quadruplicate. Cell lysates, pre-treated or not with different concentrations of the test compounds, were incubated for 30 min at 37 °C. […] Stock solutions (10 mM) of each substrate were prepared in DMSO, diluted in activity buffer, and 50 µL were added to all wells (final concentration of each substrate = 100 µM), followed by an incubation at 37 °C for 60 min. Samples fluorescence was measured at an excitation wavelength of 360 nm and emission of 465 nm; the fluorescence measures were performed using the GloMax-Multi + Detection System (Promega Corp., Madison, WI, USA). Activity was evaluated in fluorescence units, after being converted to percentage of proteasome inhibition and, whenever possible, expressed as IC50 by plotting the inhibition data of each compound at different concentrations against the log of the concentration of the inhibitor, using the GraphPad Prism software version 7. At least eight different concentrations of the test compounds were used.

Setting [5] is: at 100 µM, Table 2 legend: bortezomib 10 µM.
Where [6] appears, read: Table 2 legend: bortezomib 10 µM.

As for `Cc1ccc2ccccc2c1CSc1ncnc2c1ncn2C1OC(CO)C(O)C1O` (stereo not shown) [Compound 1], in data set [1], the inhibition at 10 µM is 0%; the “percentage of proteasome inhibition, C-L, isolated human 20S proteasome” value (“percentage of proteasome inhibition, C-L” for short) is 54.47% and 55%. For the same molecule, in data set [2], the inhibition at 10 µM amounted to 4.43%; the “percentage of proteasome inhibition, T-L, isolated human 20S proteasome” value (shortened to “percentage of proteasome inhibition, T-L”) was 51.65% and 52%. In data set [3], the viability at 72 h, 10 µM was 98.7% and the viability at 72 h, 100 µM came out at 21%. In the data set with Jurkat cells, the midpoint of inhibition, the IC50, lay at 36.8 µM and the “percentage of cell viability, MTT, Jurkat” value (“percentage of cell viability” below) is listed as 21%. The “percentage of proteasome inhibition, CT-L, cell lysates Jurkat” value in data set [4] (setting [5]) is 54%. The inhibition at 10 µM in data set [4] is 0%. The inhibition at 100 µM in data set [4] (setting [6]) was 53.5%.
Take `O=C1c2ccccc2C(=O)c2c(Nc3ccc(S(=O)(=O)N(CCO)CCO)cc3)ccc(O)c21` [Compound 2]: in data set [1], the inhibition at 10 µM amounted to 90.8%; the “percentage of proteasome inhibition, C-L” value is 97.86% and 98%. Further, in data set [2], the inhibition at 10 µM stood at 0%; the “percentage of proteasome inhibition, T-L” value stood at 97.00%; the IC50 turned out to be 25.8 µM. Also, in data set [3], the viability at 72 h, 10 µM amounted to 80.2% and the viability at 72 h, 100 µM was found to be 77.2%. Besides, the “percentage of cell viability” value in the data set on Jurkat cells is 77%. Further, in data set [4], inhibition was half-maximal at 73.2 µM (IC50) and the inhibition at 10 µM worked out at 8.23%. For the same molecule, the “percentage of proteasome inhibition, CT-L, cell lysates Jurkat” value in data set [4] (setting [5]) is on record as 72%. In data set [4] (setting [6]), the inhibition at 100 µM is 72.1%.
As to `CC(C)c1nc(CN(C)C(=O)N[C@@H](CCN2CCOCC2)C(=O)N[C@H](CC[C@H](Cc2ccccc2)NC(=O)OCc2cncs2)Cc2ccccc2)cs1` [Compound 5, cobicistat, reference compound], in data set [1], the inhibition at 10 µM stood at 0%; the “percentage of proteasome inhibition, C-L” value was 33.57% and 34%. For the same molecule, in data set [2], the inhibition at 10 µM was 5.37%; the “percentage of proteasome inhibition, T-L” value was 5.35% and 5%. Further, in data set [3], the viability at 72 h, 10 µM worked out at 93.3% and the viability at 72 h, 100 µM stood at 0%. In the data set with Jurkat cells, this molecule had an IC50 of 43.8 µM. The “percentage of proteasome inhibition, CT-L, cell lysates Jurkat” value in data set [4] (setting [5]) is reported as 64%. Also, the inhibition at 10 µM in data set [4] was 0%. The inhibition at 100 µM in data set [4] (setting [6]) came to 63.7%.
`Cc1ccc(/C(=N/NS(=O)(=O)c2ccc([N+](=O)[O-])cc2)Sc2cc(Cl)c(C)cc2S(N)(=O)=O)cc1` [Compound 3]: in data set [1], the inhibition at 10 µM worked out at 9.9%; the “percentage of proteasome inhibition, C-L” value is 88.38% and 88%. Also, in data set [2], the inhibition at 10 µM is 8.8%; the “percentage of proteasome inhibition, T-L” value is 95.30% and 95%; the IC50 came out at 27.5 µM. For the same molecule, in data set [3], the viability at 72 h, 10 µM is 98.1% and the viability at 72 h, 100 µM was found to be 86%. Also, the “percentage of cell viability” value in the data set on Jurkat cells stood at 86%. In addition, the “percentage of proteasome inhibition, CT-L, cell lysates Jurkat” value in data set [4] (setting [5]) came out at 33%. The inhibition at 10 µM in data set [4] is 0%. The inhibition at 100 µM in data set [4] (setting [6]) was 32.8%.
With `C#CCCN1CCN(c2ccc(-n3c(=O)ccc4cnc5ccc(-c6ccc(N)nc6)cc5c43)cc2C(F)(F)F)CC1` [Compound 4, 9-(6-Aminopyridin-3-yl)-1-(4-(4-(but-3-yn-1-yl)piperazin-1-yl)-3-(trifluoromethyl)phenyl)benzo[h][1,6]naphthyridin-2(1H)-one], in data set [1], the inhibition at 10 µM was determined as 5.8%; the “percentage of proteasome inhibition, C-L” value is 77.65% and 78%. Besides, in data set [2], the inhibition at 10 µM stood at 0%; the “percentage of proteasome inhibition, T-L” value is 73.95% and 74%; the IC50 worked out at 48.4 µM. Besides, in data set [3], the viability at 72 h, 10 µM was determined as 23.3% and the viability at 72 h, 100 µM came to 0%. In the data set on Jurkat cells, the IC50 amounted to 1.37 µM. Moreover, in data set [4], the IC50 stood at 24.3 µM and the inhibition at 10 µM was determined as 10.5%. Also, the inhibition at 100 µM in data set [4] (setting [6]) turned out to be 98%.
As to `CC(C)C[C@H](NC(=O)[C@H](Cc1ccccc1)NC(=O)c1cnccn1)B(O)O` [Bortezomib, bortezomib, reference compound], in data set [1], the inhibition at 10 µM came out at 33.8%; the “percentage of proteasome inhibition, C-L” value is 92.80% and 93%. For the same molecule, in data set [2], the inhibition at 10 µM amounted to 3.2%; the “percentage of proteasome inhibition, T-L” value is 33.58% and 34%. Also, in data set [3], the viability at 72 h, 10 µM came to 0% and the viability at 72 h, 100 µM was 0%. The molecule further showed an IC50 in the data set on Jurkat cells of 0.00648 µM. The “percentage of proteasome inhibition, CT-L, cell lysates Jurkat” value in data set [4] (at 10 µM) was determined as 99.63%. In addition, the “percentage of proteasome inhibition, CT-L, cell lysates Jurkat” value in data set [4] (setting [5]) was 99.30% and 99%.
